Experiments:
[1] = enterocloster bolteae, 12 h, 2 µM
Description: The drug is tested on Clostridium bolteae strain: ATCCBAA-613 for biotransformation. The drug concentrations were measured before and after a 12-h incubation by liquid-chromatography-coupled mass spectrometry (LC–MS)

[2] = bacteroides intestinalis, 12 h, 2 µM
Description: The drug is tested on Bacteroides intestinalis strain: DSM17393 for biotransformation. The drug concentrations were measured before and after a 12-h incubation by liquid-chromatography-coupled mass spectrometry (LC–MS)

[3] = The drug is tested on Providencia rettgeri strain: DSM1131 for biotransformation. The drug concentrations were measured before and after a 12-h incubation by liquid-chromatography-coupled mass spectrometry (LC–MS); format: ADME; parameters: dose 2 uM, timepoint 0 vs 12 hours; settings: 2 µM
[4] = The drug is tested on Ruminococcus lactaris strain: ATCC29176 for biotransformation. The drug concentrations were measured before and after a 12-h incubation by liquid-chromatography-coupled mass spectrometry (LC–MS); settings: 2 µM
[5] = The drug is tested on Coprococcus comes strain: ATCC27758 for biotransformation. The drug concentrations were measured before and after a 12-h incubation by liquid-chromatography-coupled mass spectrometry (LC–MS); format: ADME; parameters: dose 2 uM, timepoint 0 vs 12 hours; settings: 2 µM
[6] = bacteroides fragilis, 12 h, 2 µM
Description: The drug is tested on Bacteroides fragilis strain: 3397 (T10) for biotransformation. The drug concentrations were measured before and after a 12-h incubation by liquid-chromatography-coupled mass spectrometry (LC–MS)

[7] = The drug is tested on Clostridium symbiosum strain: ATCC14940 for biotransformation. The drug concentrations were measured before and after a 12-h incubation by liquid-chromatography-coupled mass spectrometry (LC–MS); settings: 2 µM
[8] = The drug is tested on Clostridium ramosum strain: DSM1402 for biotransformation. The drug concentrations were measured before and after a 12-h incubation by liquid-chromatography-coupled mass spectrometry (LC–MS); settings: thomasclavelia ramosa, 2 µM
[9] = The drug is tested on Bacteroides fragilis strain: ATCC43859 for biotransformation. The drug concentrations were measured before and after a 12-h incubation by liquid-chromatography-coupled mass spectrometry (LC–MS); settings: 2 µM
[10] = The drug is tested on Bacteroides pectinophilus strain: ATCC43243 for biotransformation. The drug concentrations were measured before and after a 12-h incubation by liquid-chromatography-coupled mass spectrometry (LC–MS); settings: 2 µM
[11] = The drug is tested on Edwardsiella tarda strain: ATCC23685 for biotransformation. The drug concentrations were measured before and after a 12-h incubation by liquid-chromatography-coupled mass spectrometry (LC–MS); settings: 2 µM
[12] = The drug is tested on Alistipes indistinctus strain: DSM22520 for biotransformation. The drug concentrations were measured before and after a 12-h incubation by liquid-chromatography-coupled mass spectrometry (LC–MS); settings: 2 µM
[13] = The drug is tested on Eubacterium ventriosum strain: ATCC27560 for biotransformation. The drug concentrations were measured before and after a 12-h incubation by liquid-chromatography-coupled mass spectrometry (LC–MS); format: ADME; parameters: dose 2 uM, timepoint 0 vs 12 hours; settings: 2 µM
[14] = The drug is tested on Ruminococcus gnavus strain: ATCC29149 for biotransformation. The drug concentrations were measured before and after a 12-h incubation by liquid-chromatography-coupled mass spectrometry (LC–MS); settings: mediterraneibacter gnavus, 2 µM
[15] = The drug is tested on Bacteroides caccae strain: ATCC43185 for biotransformation. The drug concentrations were measured before and after a 12-h incubation by liquid-chromatography-coupled mass spectrometry (LC–MS); settings: 2 µM
[16] = The drug is tested on Subdoligranulum variabile strain: DSM15176 for biotransformation. The drug concentrations were measured before and after a 12-h incubation by liquid-chromatography-coupled mass spectrometry (LC–MS); settings: 2 µM
[17] = The drug is tested on Escherichia coli strain: BW25113 for biotransformation. The drug concentrations were measured before and after a 12-h incubation by liquid-chromatography-coupled mass spectrometry (LC–MS); settings: 2 µM
[18] = bacteroides thetaiotaomicron, 12 h, 2 µM
Description: The drug is tested on Bacteroides thetaiotaomicron strain: 7330 for biotransformation. The drug concentrations were measured before and after a 12-h incubation by liquid-chromatography-coupled mass spectrometry (LC–MS)

[19] = The drug is tested on Enterobacter cancerogenus strain: ATCC35316 for biotransformation. The drug concentrations were measured before and after a 12-h incubation by liquid-chromatography-coupled mass spectrometry (LC–MS); settings: 2 µM
[20] = parabacteroides johnsonii, 12 h, 2 µM
Description: The drug is tested on Parabacteroides johnsonii strain: DSM18315 for biotransformation. The drug concentrations were measured before and after a 12-h incubation by liquid-chromatography-coupled mass spectrometry (LC–MS)

Structure (SMILES) | Bacterial Biotransformation [1] | Bacterial Biotransformation [2] | Bacterial Biotransformation [3] | Bacterial Biotransformation [4] | Bacterial Biotransformation [5] | Bacterial Biotransformation [6] | Bacterial Biotransformation [7] | Bacterial Biotransformation [8] | Bacterial Biotransformation [9] | Bacterial Biotransformation [10] | Bacterial Biotransformation [11] | Bacterial Biotransformation [12] | Bacterial Biotransformation [13] | Bacterial Biotransformation [14] | Bacterial Biotransformation [15] | Bacterial Biotransformation [16] | Bacterial Biotransformation [17] | Bacterial Biotransformation [18] | Bacterial Biotransformation [19] | Bacterial Biotransformation [20]
C[C@H]1O[C@@H](O[C@H]2[C@@H](O)C[C@H](O[C@H]3[C@@H](O)C[C@H](O[C@H]4CC[C@@]5(C)[C@H](CC[C@@H]6[C@@H]5C[C@@H](O)[C@]5(C)[C@@H](C7=CC(=O)OC7)CC[C@]65O)C4)O[C@@H]3C)O[C@@H]2C)C[C@H](O)[C@@H]1O [DIGOXIN] | Compound NOT metabolized | Compound NOT metabolized | Compound NOT metabolized | Compound NOT metabolized | Compound NOT metabolized | Compound metabolized | Compound NOT metabolized | Compound NOT metabolized | Compound metabolized | Compound NOT metabolized | Compound NOT metabolized | Compound NOT metabolized | Compound NOT metabolized | Compound NOT metabolized | Compound NOT metabolized | Compound NOT metabolized | Compound NOT metabolized | Compound metabolized | Compound NOT metabolized | Compound metabolized
O=c1[nH]c2ccccc2n1CCCN1CCC(n2c(=O)[nH]c3cc(Cl)ccc32)CC1 [DOMPERIDONE] | Compound NOT metabolized | Compound NOT metabolized | Compound NOT metabolized | Compound NOT metabolized | Compound NOT metabolized | Compound NOT metabolized | Compound NOT metabolized | Compound NOT metabolized | Compound NOT metabolized | Compound NOT metabolized | Compound NOT metabolized | Compound NOT metabolized | Compound NOT metabolized | Compound NOT metabolized | Compound NOT metabolized | Compound NOT metabolized | Compound NOT metabolized | Compound NOT metabolized | Compound NOT metabolized | Compound NOT metabolized
COC1=C(OC)C(=O)C(CCCCCCCCCCO)=C(C)C1=O [IDEBENONE] | Compound metabolized | Compound NOT metabolized | Compound NOT metabolized | Compound metabolized | Compound NOT metabolized | Compound metabolized | Compound NOT metabolized | Compound NOT metabolized | Compound metabolized | Compound NOT metabolized | Compound NOT metabolized | Compound metabolized | Compound NOT metabolized | Compound NOT metabolized | Compound metabolized | Compound metabolized | Compound NOT metabolized | Compound NOT metabolized | Compound NOT metabolized | Compound NOT metabolized
C#C[C@]1(OC(C)=O)CC[C@H]2[C@@H]3CCC4=C/C(=N/O)CC[C@@H]4[C@H]3CC[C@@]21CC [NORGESTIMATE] | Compound NOT metabolized | Compound NOT metabolized | Compound NOT metabolized | Compound NOT metabolized | Compound NOT metabolized | Compound NOT metabolized | – | Compound NOT metabolized | Compound NOT metabolized | Compound NOT metabolized | Compound NOT metabolized | Compound NOT metabolized | Compound NOT metabolized | Compound NOT metabolized | Compound NOT metabolized | Compound NOT metabolized | Compound NOT metabolized | Compound NOT metabolized | Compound NOT metabolized | Compound metabolized
